From US8987314B2, “Amide, urea or sulfone amide linked benzothiazole inhibitors of endothelial lipase” (Bristol-Myers Squibb Company, priority 2012, dated 2015)
Read-outs that look alike come from different tables or passages of the source.

Experiments:
Endothelial lipase (EL) = Endothelial lipase (EL) (Homo sapiens (Human), UniProt Q9Y5X9); assay: EL assay: endothelial lipase activity with fluorescent substrate A10070 in DMPG vesicles; format: biochemical
Summary of the method: (§1)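 EL from conditioned medium of HT-1080 cells engineered to overexpress endogenous EL; HL partially purified from conditioned medium of HL-overexpressing COS cells. Enzyme preincubated with compound 30 min at 37° C in 50 mM HEPES pH 8.0, 50 mM NaCl, 1 mM CaCl2; DMPG vesicles carrying FRET substrate (0.11 mole fraction) then added.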

hepatic lipase (HL) = hepatic lipase (HL) (Homo sapiens (Human), UniProt P11150); assay: HL assay: hepatic lipase activity with fluorescent substrate A10070 in DMPG vesicles; format: biochemical
Summary of the method: as §1

[1] = EL from conditioned media of HT-1080 cells, 30 min incubation with compound at 37° C., A10070/DMPG vesicles
[2] = HL partially purified from conditioned media of COS cells, 30 min incubation with compound at 37° C., A10070/DMPG vesicles

Sequence of Endothelial lipase (EL) (Q9Y5X9 21-500): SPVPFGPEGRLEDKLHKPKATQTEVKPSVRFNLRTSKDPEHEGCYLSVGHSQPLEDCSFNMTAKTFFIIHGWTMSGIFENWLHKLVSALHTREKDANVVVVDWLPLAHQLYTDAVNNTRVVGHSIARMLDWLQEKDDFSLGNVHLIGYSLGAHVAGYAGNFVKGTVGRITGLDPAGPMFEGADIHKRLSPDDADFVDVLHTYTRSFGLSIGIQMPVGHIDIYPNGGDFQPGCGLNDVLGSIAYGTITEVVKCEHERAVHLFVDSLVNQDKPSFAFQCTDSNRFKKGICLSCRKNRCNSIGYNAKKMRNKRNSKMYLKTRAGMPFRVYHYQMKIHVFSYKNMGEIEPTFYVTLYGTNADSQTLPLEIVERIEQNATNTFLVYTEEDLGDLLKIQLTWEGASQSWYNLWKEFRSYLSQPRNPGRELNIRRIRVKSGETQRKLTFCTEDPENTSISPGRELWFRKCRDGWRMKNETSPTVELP
Sequence of hepatic lipase (HL) (P11150 23-499, species assumed): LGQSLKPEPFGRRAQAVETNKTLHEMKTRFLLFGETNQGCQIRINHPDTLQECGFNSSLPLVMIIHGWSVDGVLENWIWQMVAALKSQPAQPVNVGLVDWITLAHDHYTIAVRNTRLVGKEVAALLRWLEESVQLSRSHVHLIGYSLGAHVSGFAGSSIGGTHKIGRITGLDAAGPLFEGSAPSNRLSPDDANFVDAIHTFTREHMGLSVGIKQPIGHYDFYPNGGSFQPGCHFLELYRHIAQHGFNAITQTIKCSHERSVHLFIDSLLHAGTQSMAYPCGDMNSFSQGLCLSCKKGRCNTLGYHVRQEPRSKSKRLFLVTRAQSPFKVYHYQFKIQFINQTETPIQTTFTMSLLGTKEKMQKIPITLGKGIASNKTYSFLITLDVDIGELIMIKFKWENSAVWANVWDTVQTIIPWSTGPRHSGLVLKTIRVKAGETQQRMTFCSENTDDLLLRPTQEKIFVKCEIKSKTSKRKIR

SMILES	IC50 (Endothelial lipase (EL)) [µM]	IC50 (hepatic lipase (HL)) [µM]	IC50 (Endothelial lipase (EL); [1]) [µM]	IC50 (hepatic lipase (HL); [2]) [µM]
Cc1nnc(CNC(=O)C(c2nc3cc(C)c(-c4ccc(C(=O)N5CCOCC5)cc4)cc3s2)S(C)(=O)=O)o1 (stereo not shown) [Example B81, 2-{5-methyl-6-[4-(4-morpholinylcarbonyl)phen-yl]-1,3-benzothiazol-2-yl}-N-[(5-methyl-1,3,4-oxadiazol-2-yl)methyl]-2-(methylsulfonyl)acetamide]	0.014	0.196		
CS(=O)(=O)C(C(=O)NCCS(N)(=O)=O)c1nc2ccc(-c3ccc4c(c3)CC(=O)N4)cc2s1 (stereo not shown) [Example B180, 2-(Methylsulfonyl)-2-(6-(2-oxo-2,3-dihydro-1H-indol-5-yl)-1,3-benzothiazol-2-yl)-N-(2-sulfamoylethyl)acetamide]			< 0.01	0.17
CS(=O)(=O)C(C(=O)NCCS(N)(=O)=O)c1nc2ccc(-c3ccc(C(=O)N4CCC(O)CC4)cc3)cc2s1 (stereo not shown) [Example B177, 2-(6-(4-((4-hydroxy-1-piperidinyl)carbonyl)phen-yl)-1,3-benzothiazol-2-yl)-2-(methylsulfonyl)-N-(2-sulfamoylethyl)a-cetamide]	< 0.01	0.495		
Cc1nnc(CNC(=O)C(c2nc3cc(C)c(-c4ccc(F)nc4)cc3s2)S(C)(=O)=O)o1 (stereo not shown) [Example B80, 2-[6-(6-fluoro-3-pyridinyl)-5-methyl-1,3-benzothiazol-2-yl]-N-[(5-methyl-1,3,4-oxadiazol-2-yl)methyl]-2-(methylsulfonyl)acetamide]	< 0.01	< 0.01		
Cc1cc2nc(C(C(=O)NCCS(N)(=O)=O)S(C)(=O)=O)sc2cc1-c1ccc(C(=O)OC(C)(C)C)cc1 (stereo not shown) [Example B274, tert-butyl 4-(2-{methanesulfonyl[(2-sul-famoylethyl)carbamoyl]meth-yl}-5-methyl-1,3-benzothiazol-6-yl)benzoate]	0.0017	0.0051		
CC(C)(C)OC(=O)c1ccc(-c2ccc3nc(C(C(=O)N[C@@H]4CCNC4=O)S(=O)(=O)Cc4ccccc4)sc3c2)cc1 (stereo partly drawn) [Example B386, tert-butyl 4-[2-({[(3R)-2-oxopyrrolidin-3-yl]carbamoyl}(phenyl-methanesulfonyl)methyl)-1,3-benzothiazol-6-yl]benzoate]	0.0171	0.0143		
NS(=O)(=O)CCNC(=O)C(c1nc2cc(F)c(-c3ccccc3)cc2s1)S(=O)(=O)CCN1CCOCC1 (stereo not shown) [Example B160, 2-(5-fluoro-6-phenyl-1,3-benzothiazol-2-yl)-2-((2-(4-morpholinyl)ethyl)sul-fonyl)-N-(2-sulfamoylethyl)acetamide]	< 0.01	0.02		
COCCNC(=O)c1ccc(-c2ccc3nc(C(C(=O)NCCS(N)(=O)=O)S(=O)(=O)Cc4ccc(Cl)c(Cl)c4)sc3c2)cc1 (stereo not shown) [Example B292, 4-{2-[(3,4-dichlorophen-yl)methanesulfonyl[(2-sulfa-moylethyl)carbamoyl]meth-yl]-1,3-benzothiazol-6-yl}-N-(2-methoxyethyl)ben-zamide]	0.0202	0.112		
COCCN(C)C(=O)c1ccc(-c2ccc3nc(C(C(=O)NCCS(N)(=O)=O)S(C)(=O)=O)sc3c2)cc1F (stereo not shown) [Example B246, 2-fluoro-4-(2-{methanesul-fonyl[(2-sulfamoylethyl)car-bamoyl]methyl}-1,3-benzothiazol-6-yl)-N-(2-methoxyethyl)-N-methyl-benzamide]	0.0028	0.0944		
COCCS(=O)(=O)C(C(=O)NCCS(N)(=O)=O)c1nc2ccc(-c3ccc(F)nc3)cc2s1 (stereo not shown) [Example B281, 2-[6-(6-fluoropyridin-3-yl)-1,3-benzothiazol-2-yl]-2-(2-methoxyethane-sulfonyl)-N-(2-sulfamoylethyl)acetamide]	0.0179	0.11		
CS(=O)(=O)C(C(=O)NCCS(N)(=O)=O)c1nc2ccc(-c3ccc(O)nc3)cc2s1 (stereo not shown) [Example B187, 2-(Methylsulfonyl)-2-(6-(6-oxo-1,6-dihydro-3-pyridinyl)-1,3-benzothiazol-2-yl)-N-(2-sulfamoylethyl)acetamide]			0.016	0.155
